These are literature values, as cited in patent US8709476B2, “Compositions of quaternary ammonium compounds containing bioavailability enhancers” (Supernus Pharmaceuticals, Inc., priority 2003, dated 2014).

For the series the following is noted: in humans; oral dosage form.

For the compound `O=C(O[C@H]1C[C@H]2CC[C@@H](C1)[N+]21CCCC1)C(O)(c1ccccc1)c1ccccc1` [Trospium chloride], the bioavailability entry is “up to 10%”.
